Measured values from publication PMC9290507, “Rh^II‐Catalyzed De‐symmetrization of Ethane‐1,2‐dithiol and Propane‐1,3‐dithiol Yields Metallo‐β‐lactamase Inhibitors” (Chemmedchem, 2021).

Columns and labels:
E. coli NDM‐1 (T2359) [1] = assay: Intrinsic antimicrobial activity (MIC, CLSI microdilution), E. coli NDM-1; assay type: cell-based; details: for MIC: Escherichia coli; for Intrinsic antimicrobial activity: compound alone, E. coli transformants producing NDM-1 or VIM-1 (Table 2)
Procedure: (§1) Minimal inhibitory concentrations (MICs) of imipenem monohydrate (Sigma‐Aldrich)±compound 3 a, 3 o, or 3 s against transformed E. coli strains producing NDM‐1 or VIM‐1 were determined according to microdilution method established by Clinical and Laboratory Standards Institute (CLSI).^20 The checkerboard assay was performed to test for synergy in vitro. The microtiter‐plates were set up with serial doubling dilutions of compound 3 a, 3 o, or 3 s (2‐128 mg/L) and imipenem (0.125‐128 mg/L).

VIM‐1 = biological target: T1, VIM‐1 (Pseudomonas aeruginosa, UniProt A0A0F7KYQ8); assay: Fluorescence-based enzyme activity assay (Fluorocillin), VIM-1; assay type: biochemical; details: for Effect of added zinc ions on inhibitory activity (VIM-1): 10 μM compound, additional 100 μM ZnCl2 in assay buffer
T1 construct: made in house
Procedure: (§2) In order to investigate the structure‐activity relationships of the dithiol library, we measured the inhibitory activity of 3 a–x in a fluorescence‐based enzyme activity assay (Table 1). Two relevant β‐lactamase isoforms, NDM‐1 and VIM‐1 were selected for in vitro assays. The fluorogenic substrate fluorocillin[15] was prepared according to literature and its conversion was monitored as described previously.[6] In general, a linear relationship between the potency of 3 a–x towards both enzymes could be observed, however, inhibitory potency towards VIM‐1 was almost tenfold higher (Figure 3). A very clear preference for the propane‐1,3‐dithiol over ethane‐1,2‐dithiol compounds could be observed from matched molecular pairs.
(§3) Activity assays for MBLs were performed at room temperature in black polystyrol 96well plates (Corning, Corning, NY, USA) using dicefalotinodifluorofluorescein (Fluorocillin) as a substrate. Proteins were diluted in assay buffer (HEPES 50 mM, pH 7.5 containing 0.01 %Triton X‐100), with final protein concentrations of NDM‐1: 3 nM, or VIM‐1: 4 nM. Samples were supplemented with an equimolar amount of ZnCl2. An amount of 1 μL of compounds 3 a–3 x at different concentrations was incubated with 89 μL of enzyme in assay buffer. After an incubation period of 30 min at room temperature, 10 μL of Fluorocillin substrate was added to yield the final assay volume of 100 μL. Final concentration of DMSO was 1 %. The fluorescence emitted by the fluorescent product difluorofluorescein was monitored every 45 s for 30 cycles using a Tecan fluorescent plate reader (Infinite 200; excitation at 495 nm and emission at 525 nm) and was compared with a standard curve. The rate of the enzymatic reaction was obtained by dividing the quantity of the fluorescent product (RFU) by time (min). Negative controls were measured in the absence of enzyme, whereas the positive controls were measured in the presence of enzyme and in the absence of inhibitors. The inhibitory effect of each substance was measured in triplicate in three independent experiments. IC50 values were calculated using data obtained from measurements with at least eight different inhibitor concentrations, applying a sigmoidal dose–response (variable slope with four parameters) equation using GraphPad Prism 5 (GraphPad Software, La Jolla, CA, USA) software. In order to investigate the inhibitory activity of 3 a, 3 o, or 3 s in the presence of a high Zn^2+ concentration, assay buffer containing an additional 100 μM ZnCl2 was used. The assay was performed as described above with NDM‐1 or VIM‐1 and 10 μM of 3 a, 3 o, or 3 s.

E. coli NDM‐1 (T2359) [2] = assay: Checkerboard synergy assay with imipenem, E. coli NDM-1; assay type: cell-based; details: for Imipenem MIC: E. coli NDM-1 (T2359); for Reduction of the MIC of imipenem: NDM-1 producing bacteria, maximal reduction
Procedure: (§4) To investigate this, the MIC of imipenem or combined with various concentrations of compound 3a, 3o, or 3 s was determined against E. coli transformants producing NDM‐1 or VIM‐1 (Table 3 and 4).
as §1

NDM‐1 = biological target: T2, NDM‐1 (Klebsiella pneumoniae, UniProt C7C422); assay: Fluorescence-based enzyme activity assay (Fluorocillin), NDM-1; assay type: biochemical; details: for Effect of added zinc ions on inhibitory activity (NDM-1): 10 μM compound, additional 100 μM ZnCl2 in assay buffer
T2 construct: made in house
T2 sequence (C7C422 29-270, looked up, species assumed): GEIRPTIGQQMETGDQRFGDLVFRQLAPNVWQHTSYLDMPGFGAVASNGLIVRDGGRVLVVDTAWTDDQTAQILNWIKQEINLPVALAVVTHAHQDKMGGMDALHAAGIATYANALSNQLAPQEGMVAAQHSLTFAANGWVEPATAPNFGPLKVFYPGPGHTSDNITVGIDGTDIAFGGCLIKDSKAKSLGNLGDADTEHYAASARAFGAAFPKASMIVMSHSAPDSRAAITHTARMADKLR
Procedure: as §2, §3

E. coli VIM‐1 (T2544) [3] = assay: Checkerboard synergy assay with imipenem, E. coli VIM-1; assay type: cell-based; details: for Imipenem MIC: E. coli VIM-1 (T2544); for Reduction of the MIC of imipenem: VIM-1 producing bacteria, maximal reduction
Procedure: as §4, §1

VIM‐2 = biological target: T3, VIM‐2 (Escherichia coli, UniProt Q5U7L7); assay: Kd determination using isothermal titration calorimetry; assay type: binding; details: ITC, 250 μM compound into 50 μM VIM-2, 25 °C; for Kd: inset of Figure 6
T3 construct: made in house
Procedure: The next step was the investigation of the binding thermodynamics of 3 a, 3 o, and 3 s. For these experiments we used a closely related enzyme VIM‐2 which is an isoform of VIM‐1 and can be recombinantly expressed in very high concentrations, suitable tor isothermal titration calorimetry (ITC) experiments (Figure 6).
VIM‐2 expression and purification was published elsewhere.[19] Before the measurement the VIM‐2 protein was dialyzed against 500 times the volume of buffer (50 mM Tris, 500 mM NaCl, 5 % (v/v) glycerol with a pH=8) using a dialysis membrane with a 3.5 kDa MWCO. For the measurements the compounds 3 a, 3 o, or 3 s, respectively, were diluted using the dialyses buffer to a final concentration of 250 μM containing a final DMSO concentration of 1 %. The VIM‐2 protein was diluted to a final concentration of 50 μM, supplemented with 1 % DMSO using the dialysis buffer and pure DMSO. For the control measurements dialysis buffer was supplemented with pure DMSO to a final concentration of 1 %. The measurements were performed using an “Affinity ITC” (TA‐Instruments) in reversed mode, with a stir rate of 75 rpm and a temperature of 25 °C. The VIM‐2 was placed in the cell and the respective compound in the syringe. For blank measurements either the protein or compound dilution were exchanged with buffer containing 1 % DMSO. For the measurements of 3 a and 3 s one time 0.5 μl was injected followed by 50 injections of 2 μl with a spacing of 240 s. 3 o was measured with one injection of 0.5 μl followed by 35 injections of 2 μl with a spacing of 240 s. The data were analyzed using the “NanoAnalyze Data Analysis” software (version 3.10.0; TA‐Instruments).

E. coli VIM‐1 (T2544) [4] = assay: Intrinsic antimicrobial activity (MIC, CLSI microdilution), E. coli VIM-1; assay type: cell-based; details: Escherichia coli
Procedure: as §1

Compound | MIC (E. coli NDM‐1 (T2359) [1]) [µg/mL] | Intrinsic antimicrobial activity (E. coli NDM‐1 (T2359) [1]) | IC50 (VIM‐1) [nM] | Effect of added zinc ions on inhibitory activity (VIM-1) (VIM‐1) | Imipenem MIC (E. coli NDM‐1 (T2359) [2]; +2 μg/ml compound) [µg/mL] | Imipenem MIC (E. coli NDM‐1 (T2359) [2]; +4 μg/ml compound) [µg/mL] | Imipenem MIC (E. coli NDM‐1 (T2359) [2]; +8 μg/ml compound) [µg/mL] | Imipenem MIC (E. coli NDM‐1 (T2359) [2]; +16 μg/ml compound) [µg/mL] | Imipenem MIC (E. coli NDM‐1 (T2359) [2]; +32 μg/ml compound) [µg/mL] | Imipenem MIC (E. coli NDM‐1 (T2359) [2]; +64 μg/ml compound) [µg/mL] | Imipenem MIC (E. coli NDM‐1 (T2359) [2]; +128 μg/ml compound) [µg/mL] | Reduction of the MIC of imipenem (E. coli NDM‐1 (T2359) [2]) | IC50 (NDM‐1) [nM] | Effect of added zinc ions on inhibitory activity (NDM-1) (NDM‐1) | Imipenem MIC (E. coli VIM‐1 (T2544) [3]; +2 μg/ml compound) [µg/mL] | Imipenem MIC (E. coli VIM‐1 (T2544) [3]; +4 μg/ml compound) [µg/mL] | Imipenem MIC (E. coli VIM‐1 (T2544) [3]; +8 μg/ml compound) [µg/mL] | Imipenem MIC (E. coli VIM‐1 (T2544) [3]; +16 μg/ml compound) [µg/mL] | Imipenem MIC (E. coli VIM‐1 (T2544) [3]; +32 μg/ml compound) [µg/mL] | Imipenem MIC (E. coli VIM‐1 (T2544) [3]; +64 μg/ml compound) [µg/mL] | further results
O=C1C(SCCCS)CCN1c1ccccc1 (centres unmarked) [3 o, 3‐((3‐Mercaptopropyl)thio)‐1‐phenylpyrrolidin‐2‐one] | > 512 | no intrinsic antimicrobial activity | 20 | does not impair the inhibitory activity | 128 | 128 | 128 | 128 | 32 | 32 | 16 | up to 8 fold | 300 ± 40 | does not impair the inhibitory activity | 16 | 16 | 16 | 16 | 8 | 2 | Imipenem MIC (E. coli VIM‐1 (T2544) [3]; +128 μg/ml compound): 1 µg/mL; Reduction of the MIC of imipenem (E. coli VIM‐1 (T2544) [3]): ≤ 32 fold; ΔH (VIM‐2): -11.7 kcal/mol; Kd (VIM‐2): 534 nM; MIC (E. coli VIM‐1 (T2544) [4]): > 512 µg/mL
O=C1C(SCCCS)CCN1c1nccs1 (centres unmarked) [3 s, 3‐((3‐Mercaptopropyl)thio)‐1‐(thiazol‐2‐yl)pyrrolidin‐2‐one] | > 512 | no intrinsic antimicrobial activity | 40 ± 10 | does not impair the inhibitory activity | 128 | 128 | 64 | 64 | 64 | 32 | 16 | up to 8 fold | 390 ± 50 | does not impair the inhibitory activity | 32 | 16 | 16 | 16 | 8 | 4 | Imipenem MIC (E. coli VIM‐1 (T2544) [3]; +128 μg/ml compound): 2 µg/mL; Reduction of the MIC of imipenem (E. coli VIM‐1 (T2544) [3]): ≤ 32 fold; ΔH (VIM‐2): -6.45 kcal/mol; Kd (VIM‐2): 166 nM; MIC (E. coli VIM‐1 (T2544) [4]): > 512 µg/mL
